Consider 9 molecules from ChEMBL document CHEMBL1201862, “PubChem BioAssay data set” (2004).

Activity calls are given as the source filed them.

A word on the AC50: it is the concentration at which the activity in the assay is half-maximal. Broadly, the IC50 is the point on the concentration scale where inhibition reaches its midpoint. By EC50 is commonly meant the concentration giving half of the maximal effect. By Ki is commonly meant a measure of affinity in units of concentration, obtained from inhibition or displacement.

Test [1] addresses Latent membrane protein 1 (Human herpesvirus 4 (strain B95-8), UniProt P03230). Nature of the test: TES1-eGFP NF-kB reporter inhibition versus Tet-On dsRED, dose response, selectivity assay for LMP1 NF-kB inhibitor project, imaging, HEK293T, dual-color eGFP/dsRED, cherry-picks (AID 588398). In kind it is functional, cell-based.
In another test the test system is A-375. Nature of the test: MITF: Counter assay: A375 proliferation Measured in Cell-Based System Using Plate Reader - 2084-03_Inhibitor_Dose_DryPowder_Activity. [Related pubchem assays (depositor defined):AID488944]. Format: functional. The note with it: Homo sapiens.
The test system of a further test is CHO. Nature of the test: cytotoxicity in TLR9-MyD88 CHO cells, dose response, cytotoxicity control for TLR9-MyD88 binding inhibitor project, cell-based, luminescence (AID 588339).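 Also: CHO cells stably coexpressing TLR9 and MyD88 fusions from primary screen; compound exposure lasted 48 hours before viability readout.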 In kind it is functional, hamster. As to conditions: Cricetulus griseus.
Test [2] is described as follows: growth suppression of PTEN-null colon cells, dose response, cell-based, HCT116 PTEN knockout (AID 1047).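 Also: HCT116 colon tumor cells with PTEN knocked out; cells exposed to compound for 60 hours before readout; potency for loss of cell viability measured by luminescence.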 Format: functional.
Test [3] is described as follows: growth suppression of beta-catenin-knockout colon cells, dose response, cell-based, HCT116, human colon tumor (AID 1045).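 Also: HCT116 colon tumor cells with beta catenin knocked out; cells exposed to compound for 60 hours.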 In kind it is functional.
The target in test [4] is T1, Microphthalmia-associated transcription factor (Homo sapiens, UniProt O75030).
T1 sequence (O75030 whole entry): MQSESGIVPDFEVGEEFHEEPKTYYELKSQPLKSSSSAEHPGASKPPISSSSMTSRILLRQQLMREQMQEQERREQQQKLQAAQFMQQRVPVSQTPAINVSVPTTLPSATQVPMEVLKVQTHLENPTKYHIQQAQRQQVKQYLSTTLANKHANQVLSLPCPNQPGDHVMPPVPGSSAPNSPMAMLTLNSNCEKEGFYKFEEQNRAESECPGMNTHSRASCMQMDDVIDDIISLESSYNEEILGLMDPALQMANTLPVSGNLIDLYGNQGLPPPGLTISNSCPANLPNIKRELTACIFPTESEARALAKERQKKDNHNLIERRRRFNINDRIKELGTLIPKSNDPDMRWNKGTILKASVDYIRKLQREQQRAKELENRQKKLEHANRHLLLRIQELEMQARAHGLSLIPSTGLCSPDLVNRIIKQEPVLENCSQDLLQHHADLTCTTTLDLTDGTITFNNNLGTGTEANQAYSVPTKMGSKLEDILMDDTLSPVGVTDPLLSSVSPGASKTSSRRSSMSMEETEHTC
The test is described as follows: TRPM1 promoter luciferase signal decrease, dose response, MITF inhibitor project, cell-based, SK-MEL-5, cherry-picked, set 3 (AID 493073).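 Also: SK-MEL-5 melanoma cells with luciferase driven by the MITF target TRPM1 promoter.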 In kind it is functional.

For test [5], the target named is Benomyl/methotrexate resistance protein (Candida albicans, UniProt P28873). The test is described as follows: CaMdr1 efflux pump inhibitor potency, dose response, singleplex, Cherry Pick1 hits (AID 588608). Format: functional.
Chain of Benomyl/methotrexate resistance protein (P28873 whole entry): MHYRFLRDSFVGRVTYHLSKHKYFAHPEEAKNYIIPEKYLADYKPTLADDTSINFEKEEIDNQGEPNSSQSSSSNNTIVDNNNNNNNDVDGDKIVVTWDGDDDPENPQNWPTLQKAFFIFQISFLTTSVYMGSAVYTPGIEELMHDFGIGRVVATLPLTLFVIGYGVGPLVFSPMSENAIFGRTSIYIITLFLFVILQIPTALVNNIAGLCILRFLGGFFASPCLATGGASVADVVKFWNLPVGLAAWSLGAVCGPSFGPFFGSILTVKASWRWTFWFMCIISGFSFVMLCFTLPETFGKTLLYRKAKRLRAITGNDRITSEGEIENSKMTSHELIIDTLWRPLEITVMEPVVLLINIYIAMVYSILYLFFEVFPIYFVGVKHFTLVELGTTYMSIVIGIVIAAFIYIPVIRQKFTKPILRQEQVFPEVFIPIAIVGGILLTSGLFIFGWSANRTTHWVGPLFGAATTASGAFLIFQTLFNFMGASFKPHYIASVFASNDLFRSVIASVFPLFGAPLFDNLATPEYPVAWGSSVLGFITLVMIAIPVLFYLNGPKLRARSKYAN
The target of test [6] is Multidrug resistance protein CDR1 (Candida albicans, UniProt P43071). The test is described as follows: CaCDR1 efflux pump inhibitors in yeast, dose response, S. cerevisiae AD1-8u, singleplex, Cherry Pick1 hits (AID 588606). Format: functional.
Chain of Multidrug resistance protein CDR1 (P43071 whole entry, looked up): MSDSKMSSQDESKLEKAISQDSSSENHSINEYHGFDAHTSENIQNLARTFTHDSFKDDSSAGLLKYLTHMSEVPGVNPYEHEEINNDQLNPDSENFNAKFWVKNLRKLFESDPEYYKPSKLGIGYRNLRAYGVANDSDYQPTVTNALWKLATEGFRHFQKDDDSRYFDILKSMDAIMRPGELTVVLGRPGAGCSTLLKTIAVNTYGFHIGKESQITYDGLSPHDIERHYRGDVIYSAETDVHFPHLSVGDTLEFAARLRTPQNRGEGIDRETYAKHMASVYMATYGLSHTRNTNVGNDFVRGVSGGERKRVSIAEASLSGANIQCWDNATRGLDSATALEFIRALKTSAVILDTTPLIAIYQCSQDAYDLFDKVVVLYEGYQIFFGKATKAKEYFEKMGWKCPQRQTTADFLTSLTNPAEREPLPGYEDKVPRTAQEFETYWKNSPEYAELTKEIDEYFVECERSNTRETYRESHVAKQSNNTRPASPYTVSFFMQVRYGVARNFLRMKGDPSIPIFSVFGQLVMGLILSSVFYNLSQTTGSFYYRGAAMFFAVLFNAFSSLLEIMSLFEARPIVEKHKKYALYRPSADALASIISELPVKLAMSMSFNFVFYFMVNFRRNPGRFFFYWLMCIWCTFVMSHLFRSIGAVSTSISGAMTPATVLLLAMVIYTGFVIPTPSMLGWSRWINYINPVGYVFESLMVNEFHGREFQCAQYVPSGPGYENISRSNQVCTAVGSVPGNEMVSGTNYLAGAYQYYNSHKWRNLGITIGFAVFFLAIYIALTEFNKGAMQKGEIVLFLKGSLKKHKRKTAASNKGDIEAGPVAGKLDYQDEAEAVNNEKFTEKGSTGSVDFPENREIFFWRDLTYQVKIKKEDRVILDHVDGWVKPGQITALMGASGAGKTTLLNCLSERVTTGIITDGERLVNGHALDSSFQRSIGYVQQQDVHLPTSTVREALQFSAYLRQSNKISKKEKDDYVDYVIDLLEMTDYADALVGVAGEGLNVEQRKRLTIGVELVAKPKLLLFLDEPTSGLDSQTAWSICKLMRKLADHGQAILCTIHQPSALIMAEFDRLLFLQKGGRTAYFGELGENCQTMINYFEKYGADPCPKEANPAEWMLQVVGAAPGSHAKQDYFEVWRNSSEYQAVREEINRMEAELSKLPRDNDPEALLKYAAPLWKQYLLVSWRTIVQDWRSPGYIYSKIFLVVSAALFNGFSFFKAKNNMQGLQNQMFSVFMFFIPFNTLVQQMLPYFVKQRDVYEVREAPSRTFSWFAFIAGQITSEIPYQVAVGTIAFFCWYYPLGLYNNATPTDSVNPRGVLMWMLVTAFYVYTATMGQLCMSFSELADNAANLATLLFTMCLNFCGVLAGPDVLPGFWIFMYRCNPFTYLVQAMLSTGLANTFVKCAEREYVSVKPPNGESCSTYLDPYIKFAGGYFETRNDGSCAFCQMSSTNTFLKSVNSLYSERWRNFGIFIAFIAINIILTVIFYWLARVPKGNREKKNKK
Another test has as its target T2, Hexokinase HKDC1 (Homo sapiens, UniProt Q2TB90).
T2 sequence (Q2TB90 whole entry): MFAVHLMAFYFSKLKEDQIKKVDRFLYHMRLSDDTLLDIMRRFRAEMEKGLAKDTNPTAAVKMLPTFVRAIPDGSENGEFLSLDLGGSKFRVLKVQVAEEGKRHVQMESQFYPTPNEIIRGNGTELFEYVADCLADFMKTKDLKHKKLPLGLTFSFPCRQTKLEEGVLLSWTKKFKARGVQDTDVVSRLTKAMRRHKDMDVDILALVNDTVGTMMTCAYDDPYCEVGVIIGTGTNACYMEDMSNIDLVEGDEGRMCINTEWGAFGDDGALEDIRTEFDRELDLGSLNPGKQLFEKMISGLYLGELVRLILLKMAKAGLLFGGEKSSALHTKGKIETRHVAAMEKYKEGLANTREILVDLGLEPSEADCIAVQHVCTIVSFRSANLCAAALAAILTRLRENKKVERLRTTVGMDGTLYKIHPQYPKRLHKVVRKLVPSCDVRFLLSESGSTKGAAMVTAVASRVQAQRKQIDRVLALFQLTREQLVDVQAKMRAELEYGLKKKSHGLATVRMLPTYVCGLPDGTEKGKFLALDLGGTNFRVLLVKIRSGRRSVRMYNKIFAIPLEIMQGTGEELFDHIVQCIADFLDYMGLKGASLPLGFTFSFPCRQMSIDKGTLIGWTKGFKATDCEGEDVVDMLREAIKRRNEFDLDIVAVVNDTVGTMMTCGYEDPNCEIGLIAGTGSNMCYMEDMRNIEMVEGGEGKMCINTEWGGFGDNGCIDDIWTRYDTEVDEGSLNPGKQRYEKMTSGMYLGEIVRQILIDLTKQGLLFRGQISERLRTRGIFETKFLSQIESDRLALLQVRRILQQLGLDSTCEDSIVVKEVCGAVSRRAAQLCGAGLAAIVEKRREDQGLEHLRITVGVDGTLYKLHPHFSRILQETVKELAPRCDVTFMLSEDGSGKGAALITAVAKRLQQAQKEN
Nature of the test: SAR analysis of small molecule inhibitors of hexokinase domain containing I (HKDC1). [Related pubchem assays (depositor defined):AID493160, AID493190]. In kind it is functional.

The target in the next test is T3, Hexokinase-1 (Homo sapiens, UniProt P19367).
T3 sequence (P19367 whole entry): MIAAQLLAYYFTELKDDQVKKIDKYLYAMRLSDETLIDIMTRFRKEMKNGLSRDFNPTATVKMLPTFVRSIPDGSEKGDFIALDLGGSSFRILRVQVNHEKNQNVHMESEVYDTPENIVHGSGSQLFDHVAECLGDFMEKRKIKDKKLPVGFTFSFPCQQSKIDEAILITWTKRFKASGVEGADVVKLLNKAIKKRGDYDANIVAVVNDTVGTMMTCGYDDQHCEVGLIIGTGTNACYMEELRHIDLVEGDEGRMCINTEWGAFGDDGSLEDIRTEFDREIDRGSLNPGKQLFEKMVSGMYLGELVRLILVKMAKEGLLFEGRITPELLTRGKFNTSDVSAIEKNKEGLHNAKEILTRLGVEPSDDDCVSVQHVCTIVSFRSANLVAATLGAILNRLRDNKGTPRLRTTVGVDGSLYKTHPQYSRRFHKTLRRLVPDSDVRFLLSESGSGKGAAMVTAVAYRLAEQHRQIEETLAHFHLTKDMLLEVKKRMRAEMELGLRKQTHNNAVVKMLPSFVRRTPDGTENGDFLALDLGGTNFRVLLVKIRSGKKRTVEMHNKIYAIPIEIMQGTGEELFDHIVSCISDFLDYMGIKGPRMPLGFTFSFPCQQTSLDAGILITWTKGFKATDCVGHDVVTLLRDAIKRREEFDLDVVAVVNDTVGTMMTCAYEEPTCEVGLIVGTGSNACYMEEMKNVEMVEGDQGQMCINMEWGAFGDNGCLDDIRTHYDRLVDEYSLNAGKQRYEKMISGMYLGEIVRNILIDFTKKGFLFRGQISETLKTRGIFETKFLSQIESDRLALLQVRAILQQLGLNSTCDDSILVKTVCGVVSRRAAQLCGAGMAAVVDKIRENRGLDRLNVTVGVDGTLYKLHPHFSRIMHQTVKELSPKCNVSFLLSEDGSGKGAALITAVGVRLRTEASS
The test is described as follows: SAR analysis of small molecule inhibitors of hexokinase domain containing I (HKDC1) in the hexokinase 1 selectivity assay. [Related pubchem assays (depositor defined):AID493160, AID493190]. In kind it is functional.

Test [7] concerns INS1. Nature of the test: inhibitors of cytokine-induced nitrite release, dose response, cell-based, Griess absorbance, INS-1E, dry powder, set 2 (AID 488868). Format: functional. The note with it: Rattus norvegicus. (Nitrite, measured by Griess reagent, commonly stands in for NO production.)
Test [8] has as its system INS1. Nature of the test: protection of INS-1E cells from cytokine death, dose response, ATP luminescence, dry powder (AID 488844). Format: functional, cell-based. The note with it: Rattus norvegicus.
Test [9] in a line: inhibitors of cytokine-induced nitrite release, dose response, cell-based, Griess absorbance, INS-1E, dry powder, set 3 (AID 488870). As to conditions: Rattus norvegicus. Format: functional.
For the next test, the target named is Aurora kinase B (Homo sapiens, UniProt Q96GD4). In kind it is functional.
Chain of Aurora kinase B (Q96GD4 whole entry): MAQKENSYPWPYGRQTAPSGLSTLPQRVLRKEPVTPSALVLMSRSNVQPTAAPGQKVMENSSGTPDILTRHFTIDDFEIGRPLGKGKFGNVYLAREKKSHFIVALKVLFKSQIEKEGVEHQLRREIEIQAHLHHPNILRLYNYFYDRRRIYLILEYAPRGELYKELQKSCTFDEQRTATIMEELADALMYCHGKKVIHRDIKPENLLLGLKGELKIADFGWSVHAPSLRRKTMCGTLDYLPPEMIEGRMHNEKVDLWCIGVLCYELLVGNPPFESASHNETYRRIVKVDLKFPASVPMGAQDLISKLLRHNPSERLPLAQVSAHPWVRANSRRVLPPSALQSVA
For the next test, the target named is T4, Aurora kinase A (Homo sapiens, UniProt O14965).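 Also: value from the Navigating the Kinome kinase panel profiling, panel entry STK6.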
T4 sequence (O14965 whole entry): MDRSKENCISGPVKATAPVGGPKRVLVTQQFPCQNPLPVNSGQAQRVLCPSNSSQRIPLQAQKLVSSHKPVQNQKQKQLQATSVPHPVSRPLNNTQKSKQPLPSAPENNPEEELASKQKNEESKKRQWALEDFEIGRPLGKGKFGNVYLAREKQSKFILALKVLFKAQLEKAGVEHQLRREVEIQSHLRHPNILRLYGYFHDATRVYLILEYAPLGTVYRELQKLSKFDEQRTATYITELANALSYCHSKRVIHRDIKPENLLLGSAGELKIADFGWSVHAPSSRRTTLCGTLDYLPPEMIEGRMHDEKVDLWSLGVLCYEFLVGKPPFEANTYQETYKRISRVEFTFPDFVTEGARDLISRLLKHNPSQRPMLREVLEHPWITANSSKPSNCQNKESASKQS
Format: functional.

In test [10] the target is Vascular endothelial growth factor receptor 2 (Homo sapiens, UniProt P35968). In kind it is functional.
Chain of Vascular endothelial growth factor receptor 2 (P35968 whole entry): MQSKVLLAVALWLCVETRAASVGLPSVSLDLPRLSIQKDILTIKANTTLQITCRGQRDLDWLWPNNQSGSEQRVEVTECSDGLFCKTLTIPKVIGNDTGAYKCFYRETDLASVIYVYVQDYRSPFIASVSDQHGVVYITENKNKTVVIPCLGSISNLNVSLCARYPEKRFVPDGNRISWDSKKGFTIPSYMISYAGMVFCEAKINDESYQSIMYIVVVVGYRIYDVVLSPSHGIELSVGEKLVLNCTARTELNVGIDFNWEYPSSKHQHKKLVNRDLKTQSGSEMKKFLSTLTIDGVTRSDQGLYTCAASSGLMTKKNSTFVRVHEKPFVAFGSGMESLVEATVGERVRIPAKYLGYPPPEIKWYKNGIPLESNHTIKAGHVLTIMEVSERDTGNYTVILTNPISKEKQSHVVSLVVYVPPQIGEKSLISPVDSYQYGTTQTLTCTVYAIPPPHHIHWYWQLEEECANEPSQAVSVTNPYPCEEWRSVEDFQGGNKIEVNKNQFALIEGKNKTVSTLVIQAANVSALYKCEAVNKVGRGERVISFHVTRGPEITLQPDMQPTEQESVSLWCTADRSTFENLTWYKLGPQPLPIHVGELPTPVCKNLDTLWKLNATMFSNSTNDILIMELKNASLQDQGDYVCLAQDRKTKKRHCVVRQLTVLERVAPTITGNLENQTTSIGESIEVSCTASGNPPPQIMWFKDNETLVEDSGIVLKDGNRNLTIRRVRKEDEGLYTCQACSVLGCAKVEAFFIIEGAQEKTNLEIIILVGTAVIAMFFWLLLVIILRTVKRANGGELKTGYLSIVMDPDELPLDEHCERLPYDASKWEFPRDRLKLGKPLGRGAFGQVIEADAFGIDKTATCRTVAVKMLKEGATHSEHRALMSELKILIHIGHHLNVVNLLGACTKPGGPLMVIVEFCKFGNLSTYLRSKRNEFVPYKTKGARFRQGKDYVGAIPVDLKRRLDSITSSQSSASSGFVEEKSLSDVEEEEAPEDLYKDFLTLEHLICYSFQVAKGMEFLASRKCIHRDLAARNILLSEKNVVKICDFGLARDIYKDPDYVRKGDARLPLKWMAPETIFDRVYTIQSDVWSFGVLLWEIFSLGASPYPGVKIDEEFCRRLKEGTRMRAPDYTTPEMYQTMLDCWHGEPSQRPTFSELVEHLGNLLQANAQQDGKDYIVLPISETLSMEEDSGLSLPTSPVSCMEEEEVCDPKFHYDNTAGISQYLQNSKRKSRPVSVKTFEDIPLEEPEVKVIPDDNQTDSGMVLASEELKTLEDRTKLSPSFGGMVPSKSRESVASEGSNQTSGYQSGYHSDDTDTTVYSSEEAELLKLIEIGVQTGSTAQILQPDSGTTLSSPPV
Test [11] has as its target Melanin-concentrating hormone receptor 1 (Homo sapiens, UniProt Q99705). The test is described as follows: Late-stage fluorescence-based counterscreen for antagonists of the G-protein coupled receptor 7 (GPR7): cell-based dose response assay to identify antagonists of the melanin-concentrating hormone receptor 1 (MCHR1) Set 5. In kind it is functional.
In another test the test system is HEK293. The test is described as follows: inhibitors of LMP1-driven NF-kB reporter, dose response, cell-based, HEK293, luciferase, cherry-pick (AID 588343). Format: functional. As to conditions: Homo sapiens.

Chain of Latent membrane protein 1 (P03230 whole entry): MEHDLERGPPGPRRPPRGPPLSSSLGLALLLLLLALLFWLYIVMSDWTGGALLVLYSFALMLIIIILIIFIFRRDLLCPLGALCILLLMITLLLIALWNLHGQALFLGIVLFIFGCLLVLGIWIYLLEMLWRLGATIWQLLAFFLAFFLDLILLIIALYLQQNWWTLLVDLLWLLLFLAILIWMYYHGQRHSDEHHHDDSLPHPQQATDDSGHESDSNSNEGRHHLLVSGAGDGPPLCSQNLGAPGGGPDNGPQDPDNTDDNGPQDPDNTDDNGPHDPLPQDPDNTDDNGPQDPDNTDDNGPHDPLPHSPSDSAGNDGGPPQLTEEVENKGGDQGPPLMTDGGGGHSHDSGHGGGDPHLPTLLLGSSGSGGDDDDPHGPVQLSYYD
Chain of Melanin-concentrating hormone receptor 1 (Q99705 whole entry): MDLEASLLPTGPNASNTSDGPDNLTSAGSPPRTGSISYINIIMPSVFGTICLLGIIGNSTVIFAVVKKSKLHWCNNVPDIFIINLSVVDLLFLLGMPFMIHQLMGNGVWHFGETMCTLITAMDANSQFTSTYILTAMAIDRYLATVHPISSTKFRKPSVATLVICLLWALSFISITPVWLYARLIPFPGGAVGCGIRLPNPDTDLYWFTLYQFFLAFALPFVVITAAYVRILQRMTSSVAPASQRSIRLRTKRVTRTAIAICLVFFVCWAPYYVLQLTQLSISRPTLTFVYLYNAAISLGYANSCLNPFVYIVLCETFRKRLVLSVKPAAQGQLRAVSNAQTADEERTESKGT

For `COCCN1Cc2cccc(C(=O)N3CCN(c4cc(C)ccc4C)CC3)c2C1=O`, the AC50 in test [1] was 53.1 µM (active).
`CCCCN(C)CC(O)Cn1cc(/C=C/C(=O)c2cccs2)c2ccccc21` (stereo unspecified): the AC50 in the test with A-375 is 40.9 µM (active); in [4], 14.3 µM (active). The IC50 with CHO is 14.9 µM (inactive). For the same molecule, the results for the EC50 in test [2] and in test [3] were 13.4 µM (active) and 10.5 µM (active), respectively.
As for `COc1ccc2sc(-c3ccccc3OC)c(-c3ccc(OCCN4CCOCC4)cc3)c2c1`, the EC50 in [5] was 10.6 µM (active); in test [6] it was 10 µM (active).
Turning to `O=c1c2ccccc2nc(/C=C\c2ccccc2Cl)n1Cc1ccccc1`, the IC50 on Hexokinase HKDC1 and at Hexokinase-1 was > 80 µM (inactive) each time.
Consider `O=S(=O)(Nc1cc(Sc2nc[nH]n2)c(O)c2ccccc12)c1ccc(Cl)cc1`, for which the results for the concentration for half-maximal inhibition (IC50) on Hexokinase HKDC1 and at Hexokinase-1 were 9.86 µM (active) and 65.3 µM (inactive), respectively.
In the case of `C[C@@H]1CN([C@@H](C)CO)C(=O)c2cccc(NC(=O)Nc3cccc4ccccc34)c2O[C@H]1CN(C)S(=O)(=O)c1ccc(F)cc1`, the AC50 in the test on INS1 [7] was 138 µM (active); with INS1 [8], 7.41 µM (active); in test [9], 77.2 µM (active).
For the molecule `CC(C)CC(CO)NC(=O)C=Cc1cnc(N)c2ccccc12` (stereo unspecified), the Ki on Aurora kinase B was 0.0158 µM (active); on Aurora kinase A it was 1.58 µM (active); in test [10], > 5.01 µM (inactive).
Take `O=c1c(Oc2ccc3c(c2)CCC3)c(Cl)cnn1Cc1cccc2ccccc12`: the IC50 in [11] was 17.9 µM (inactive).
For `COc1cc([C@@H]2c3cc4c(cc3[C@@H](O[C@@H]3O[C@@H]5CO[C@@H](C)O[C@H]5[C@H](O)[C@H]3O)[C@H]3COC(=O)[C@H]23)OCO4)cc(OC)c1O` [ETOPOSIDE], the AC50 is 0.784 µM (active) with HEK293 and 0.4 µM (active) in [1].
